Data reported in ChEMBL document CHEMBL1201862, “PubChem BioAssay data set” (2004).
Activity calls are given as the source filed them.

How the values were obtained:
[1] = target: DNA dC->dU-editing enzyme APOBEC-3G (Homo sapiens, UniProt Q9HC16); type: functional;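 further: Dose-response counterscreen measuring inhibition of APOBEC3G DNA deaminase activity, run while confirming APOBEC3A inhibitors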
[2] = target: DNA dC->dU-editing enzyme APOBEC-3A (Homo sapiens, UniProt P31941); test: Dose Response confirmation of small molecule APOBEC3A DNA Deaminase Inhibitors via a fluorescence-based single-stranded DNA deaminase assay. [Related pubchem assays (depositor defined):AID493011, AID493024]; type: functional
DNA dC->dU-editing enzyme APOBEC-3A, sequence (P31941 whole entry): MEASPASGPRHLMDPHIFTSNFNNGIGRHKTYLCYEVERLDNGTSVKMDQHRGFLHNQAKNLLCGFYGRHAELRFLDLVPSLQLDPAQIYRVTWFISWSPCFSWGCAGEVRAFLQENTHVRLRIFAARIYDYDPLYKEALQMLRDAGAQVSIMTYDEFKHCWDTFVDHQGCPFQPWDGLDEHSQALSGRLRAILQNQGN

[3] = target: Glyceraldehyde-3-phosphate dehydrogenase (Homo sapiens, UniProt P04406)
Glyceraldehyde-3-phosphate dehydrogenase, sequence (P04406 whole entry): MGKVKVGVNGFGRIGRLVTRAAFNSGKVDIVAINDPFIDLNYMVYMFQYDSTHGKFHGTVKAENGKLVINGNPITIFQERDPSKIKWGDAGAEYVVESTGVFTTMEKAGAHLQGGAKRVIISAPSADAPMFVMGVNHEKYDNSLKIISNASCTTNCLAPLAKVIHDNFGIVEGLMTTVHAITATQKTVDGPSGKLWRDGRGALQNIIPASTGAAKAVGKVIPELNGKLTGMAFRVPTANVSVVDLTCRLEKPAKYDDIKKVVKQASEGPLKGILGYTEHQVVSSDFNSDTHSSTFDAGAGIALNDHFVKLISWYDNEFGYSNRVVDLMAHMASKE

[4] = target: T1, Alkaline phosphatase, tissue-nonspecific isozyme (Homo sapiens, UniProt P05186); test: human TNAP enzyme inhibitors, SAR follow-up, biochemical, luminescent, dose response (AID 1056)
T1 sequence (P05186 whole entry): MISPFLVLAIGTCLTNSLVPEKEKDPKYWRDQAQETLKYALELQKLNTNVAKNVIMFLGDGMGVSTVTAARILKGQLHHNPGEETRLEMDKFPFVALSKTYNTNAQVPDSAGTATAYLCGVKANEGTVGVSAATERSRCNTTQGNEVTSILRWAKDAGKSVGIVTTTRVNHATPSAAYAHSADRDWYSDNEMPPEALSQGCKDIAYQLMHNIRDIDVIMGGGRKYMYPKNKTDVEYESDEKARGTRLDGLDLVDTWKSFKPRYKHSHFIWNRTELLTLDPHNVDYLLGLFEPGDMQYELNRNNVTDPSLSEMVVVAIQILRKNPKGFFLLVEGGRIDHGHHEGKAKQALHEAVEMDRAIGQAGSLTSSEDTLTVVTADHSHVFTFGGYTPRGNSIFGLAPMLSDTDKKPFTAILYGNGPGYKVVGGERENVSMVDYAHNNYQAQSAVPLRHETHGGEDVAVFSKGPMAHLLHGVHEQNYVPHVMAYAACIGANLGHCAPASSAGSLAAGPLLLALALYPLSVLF

[5] = inhibitors of intracellular T. cruzi replication, confirmation, NIH3T3 host cells, beta-gal luminescence (AID 2044); type: functional, cell-based;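 further: intracellular parasites grown in NIH/3T3 mouse fibroblasts as host cells; luminescent beta-galactosidase reporter signal from transgenic T. cruzi replicating inside host cells; inhibitors lower the luminescence signal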
[6] = growth suppression of PTEN-null colon cells, dose response, cell-based, HCT116 PTEN knockout (AID 1047); type: functional;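 further: HCT116 colon tumor cells with PTEN knocked out; cells exposed to compound for 60 hours before readout; potency for loss of cell viability measured by luminescence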
[7] = cytotoxicity toward NIH3T3 fibroblasts, dose response, counter-screen, cell-based, ATP luminescence, mouse fibroblasts (AID 2010); type: functional;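 further: cells exposed to compound for about 90 hours before reading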
[8] = growth suppression of beta-catenin-knockout colon cells, dose response, cell-based, HCT116, human colon tumor (AID 1045); type: functional;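 further: HCT116 colon tumor cells with beta catenin knocked out; cells exposed to compound for 60 hours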
[9] = A cytotoxicity screen of small molecule inhibitors of the PhoP region in Salmonella typhi identified in the primary screen. [Related pubchem assays: 1850, 1864, 1985 ]; type: functional
Bcl-2-related protein A1 = target: T2, Bcl-2-related protein A1 (Mus musculus, UniProt Q07440); type: functional;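 further: confirmatory dose–response counterscreen on Bfl-1, used to check hits from a UBC13 polyubiquitin inhibitor campaign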
T2 sequence (Q07440 whole entry): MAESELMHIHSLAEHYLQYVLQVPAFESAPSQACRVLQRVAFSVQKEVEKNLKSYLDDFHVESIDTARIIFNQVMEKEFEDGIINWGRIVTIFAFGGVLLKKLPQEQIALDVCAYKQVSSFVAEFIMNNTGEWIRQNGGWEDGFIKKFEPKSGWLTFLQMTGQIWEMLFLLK

[10] = target: T3, Ubiquitin-conjugating enzyme E2 N (Homo sapiens, UniProt P61088); type: functional
T3 sequence (P61088 whole entry): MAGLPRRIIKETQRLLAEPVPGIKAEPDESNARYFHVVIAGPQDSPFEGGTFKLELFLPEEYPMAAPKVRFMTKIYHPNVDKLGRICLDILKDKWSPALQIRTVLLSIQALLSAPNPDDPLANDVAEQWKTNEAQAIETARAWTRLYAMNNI

[11] = target: T3, Ubiquitin-conjugating enzyme E2 N; type: functional; remark: listed apart in the source
Prothrombin = Prothrombin (Homo sapiens, UniProt P00734); test: Thrombin 1536 HTS Dose Response Confirmation. [Related pubchem assays: 1046 (Thrombin 1536 HTS; hits were confirmed in this assay)]; type: functional
[12] = target: T4, Heat shock factor protein 1 (Mus musculus, UniProt P38532); test: HSF1 potentiators in luciferase reporter cells, confirmation, cell-based, NIH3T3, luminescence, dose retest (AID 435004); type: functional;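 further: stress induced by proteasome inhibitor MG132 added 30 min after compound; luciferase reporter driven by HSF1 response element in NIH3T3 cells; actives raise luminescence as potentiators of the MG132 stress response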
T4 sequence (P38532 whole entry): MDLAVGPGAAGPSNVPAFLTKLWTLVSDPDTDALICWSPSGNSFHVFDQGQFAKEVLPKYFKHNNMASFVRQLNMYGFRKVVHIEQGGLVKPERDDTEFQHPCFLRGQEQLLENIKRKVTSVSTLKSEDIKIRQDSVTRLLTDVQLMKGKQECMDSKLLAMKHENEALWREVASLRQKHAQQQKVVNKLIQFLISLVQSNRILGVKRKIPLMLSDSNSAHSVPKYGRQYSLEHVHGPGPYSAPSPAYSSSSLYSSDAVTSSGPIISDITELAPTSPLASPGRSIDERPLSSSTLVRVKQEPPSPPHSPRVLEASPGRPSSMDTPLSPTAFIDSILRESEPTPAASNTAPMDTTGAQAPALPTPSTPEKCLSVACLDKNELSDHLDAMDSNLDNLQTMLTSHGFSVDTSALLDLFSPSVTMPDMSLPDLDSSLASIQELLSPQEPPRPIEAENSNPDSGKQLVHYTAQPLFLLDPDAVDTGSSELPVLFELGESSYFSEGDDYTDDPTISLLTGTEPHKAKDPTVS

[13] = THP-1 cell cytotoxicity, dose response, cytotoxicity control for non-replicating M. tuberculosis project (AID 489025); type: functional
[14] = Luminescence Cell-Based Dose Response HTS to Identify Inhibitors of 5'UTR Stem-Loop Driven Prion Protein mRNA Translation in H4 Neuroglioblastoma Cells. [Related pubchem assays: 1827 (Project Summary), 1813 (Primary HTS)]; type: functional
[15] = inhibitors of firefly luciferase expression or activity, dose response, H4 neuroglioma cells, luminescence (AID 1990); type: functional, cell-based
INS1 = test: beta cell apoptosis inhibitors, cytokine rescue, dose response, luminescence, retest (AID 449756); type: functional, cell-based; settings: Rattus norvegicus;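 further: cell death triggered by IL-1 beta plus TNF-alpha plus IFN-gamma mixture; protective hits raise ATP signal compared with cytokine alone wells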
[16] = inhibitors of SNCA 5'UTR-driven reporter translation, confirmation, H4 neuroglioma cells, luminescence (AID 1988); type: functional, cell-based
[17] = target: T5, Calpain-2 catalytic subunit (Sus scrofa, UniProt P43367); test: pig calpain II inhibitor potency, dose response, biochemical, fluorogenic peptide substrate (AID 1420); type: functional
T5 sequence (P43367 whole entry): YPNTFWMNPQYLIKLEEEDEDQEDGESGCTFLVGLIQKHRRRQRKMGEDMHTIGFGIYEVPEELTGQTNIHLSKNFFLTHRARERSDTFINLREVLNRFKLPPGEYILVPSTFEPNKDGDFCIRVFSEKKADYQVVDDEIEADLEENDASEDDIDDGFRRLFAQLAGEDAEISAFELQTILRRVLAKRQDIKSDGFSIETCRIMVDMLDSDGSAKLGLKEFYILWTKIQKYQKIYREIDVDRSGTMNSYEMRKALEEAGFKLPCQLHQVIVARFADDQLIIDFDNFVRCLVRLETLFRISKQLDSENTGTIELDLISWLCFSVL

[18] = target: G-protein coupled receptor 55 (Homo sapiens, UniProt Q9Y2T6); test: GPR55 antagonists blocking LPI-driven arrestin recruitment, primary screen, imaging, U2OS, beta-arrestin-GFP, LPI agonist (AID 2013); type: functional;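 further: antagonist potency measured as reduced agonist-driven arrestin aggregation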
G-protein coupled receptor 55, sequence (Q9Y2T6 whole entry): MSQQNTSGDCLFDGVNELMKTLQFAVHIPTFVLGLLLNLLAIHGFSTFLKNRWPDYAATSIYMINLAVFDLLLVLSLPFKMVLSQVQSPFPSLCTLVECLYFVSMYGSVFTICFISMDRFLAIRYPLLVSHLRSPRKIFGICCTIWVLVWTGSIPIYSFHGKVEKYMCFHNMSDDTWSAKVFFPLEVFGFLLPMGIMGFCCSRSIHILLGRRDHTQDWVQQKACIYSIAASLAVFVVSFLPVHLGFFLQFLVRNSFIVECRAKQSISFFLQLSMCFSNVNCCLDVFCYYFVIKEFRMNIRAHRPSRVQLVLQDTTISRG

[19] = target: FAD-linked sulfhydryl oxidase ALR (Homo sapiens, UniProt P55789); test: inhibitors of human ALR sulfhydryl oxidase, dose response, biochemical, H2O2 detection, luminescence, cherry-pick (AID 493248)
FAD-linked sulfhydryl oxidase ALR, sequence (P55789 whole entry): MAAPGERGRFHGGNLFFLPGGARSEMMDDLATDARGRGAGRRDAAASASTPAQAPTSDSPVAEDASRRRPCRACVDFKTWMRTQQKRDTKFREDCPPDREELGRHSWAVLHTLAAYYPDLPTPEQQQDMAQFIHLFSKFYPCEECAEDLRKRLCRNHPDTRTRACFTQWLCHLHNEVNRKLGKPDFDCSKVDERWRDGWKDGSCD

[20] = target: T6, Short transient receptor potential channel 4 (Mus musculus, UniProt Q9QUQ5); test: mouse TRPC4 channel inhibitors, dose response, cell-based, HEK293 TRPC4/mu-opioid, Fluo-4 calcium (AID 434942); type: functional;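 further: potency of inhibitors blocking the TRPC4 calcium response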
T6 sequence (Q9QUQ5 whole entry): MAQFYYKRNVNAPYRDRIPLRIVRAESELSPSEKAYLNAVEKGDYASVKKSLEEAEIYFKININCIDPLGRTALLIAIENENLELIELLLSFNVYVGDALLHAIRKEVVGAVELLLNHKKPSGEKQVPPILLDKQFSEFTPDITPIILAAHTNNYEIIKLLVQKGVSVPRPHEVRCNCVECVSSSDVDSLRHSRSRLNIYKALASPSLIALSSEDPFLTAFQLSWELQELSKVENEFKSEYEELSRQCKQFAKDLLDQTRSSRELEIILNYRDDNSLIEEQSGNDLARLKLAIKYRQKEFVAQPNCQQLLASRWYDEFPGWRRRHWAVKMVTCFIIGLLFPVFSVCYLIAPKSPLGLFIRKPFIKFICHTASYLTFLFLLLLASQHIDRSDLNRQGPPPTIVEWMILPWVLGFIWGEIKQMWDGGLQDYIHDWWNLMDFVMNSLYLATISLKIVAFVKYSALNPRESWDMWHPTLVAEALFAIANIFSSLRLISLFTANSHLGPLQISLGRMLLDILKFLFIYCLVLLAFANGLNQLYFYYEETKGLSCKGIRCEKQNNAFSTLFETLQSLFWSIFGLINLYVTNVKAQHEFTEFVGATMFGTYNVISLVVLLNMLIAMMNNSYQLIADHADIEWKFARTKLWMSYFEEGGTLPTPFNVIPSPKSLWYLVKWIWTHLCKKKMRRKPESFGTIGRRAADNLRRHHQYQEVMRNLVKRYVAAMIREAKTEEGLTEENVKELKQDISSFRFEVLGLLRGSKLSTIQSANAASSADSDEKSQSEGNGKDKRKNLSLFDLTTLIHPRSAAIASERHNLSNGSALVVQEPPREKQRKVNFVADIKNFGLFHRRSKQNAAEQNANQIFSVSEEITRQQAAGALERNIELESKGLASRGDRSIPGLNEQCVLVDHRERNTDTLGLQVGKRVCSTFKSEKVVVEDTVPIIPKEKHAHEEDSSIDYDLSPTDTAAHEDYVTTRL

[21] = HEp-2 cell cytotoxicity, dose response, cytotoxicity control for RSV inhibitor project, HTS (AID 2410); type: functional; settings: human respiratory syncytial virus

DNA dC->dU-editing enzyme APOBEC-3G, sequence (Q9HC16 whole entry): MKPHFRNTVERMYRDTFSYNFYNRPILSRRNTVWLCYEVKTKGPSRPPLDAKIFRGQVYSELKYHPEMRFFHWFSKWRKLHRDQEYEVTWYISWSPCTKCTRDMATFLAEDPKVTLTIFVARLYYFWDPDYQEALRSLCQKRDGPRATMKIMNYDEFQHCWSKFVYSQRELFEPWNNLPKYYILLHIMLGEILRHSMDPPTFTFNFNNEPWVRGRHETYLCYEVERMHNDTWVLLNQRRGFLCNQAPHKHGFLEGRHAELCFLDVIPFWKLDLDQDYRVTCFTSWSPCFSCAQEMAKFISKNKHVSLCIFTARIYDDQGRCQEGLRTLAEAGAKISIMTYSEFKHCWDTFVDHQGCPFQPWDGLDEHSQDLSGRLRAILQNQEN

## CCN1C(NCCc2c[nH]c3ccccc23)=N[C@@H](c2ccccc2)[C@H](C(=O)OC)[C@H]1C
[1]
  IC50: 8.65 µM (active)
[2]
  IC50: 6.29 µM (active)

## O=S(=O)(Nc1ccccc1I)c1cnc2ccccc2c1
[3]
  IC50: > 10 µM (inconclusive)
[4]
  IC50: > 10 µM (inactive)

## COc1cc(CNC2CCCC2)cc(Cl)c1OCc1ccccc1F
[5]
  EC50: 2.01 µM (active)
[6]
  EC50: 19.9 µM (active)
[7]
  EC50: > 60 µM (not active)
[8]
  EC50: 19.1 µM (active)

## Cc1occc1C(=O)N/N=C/C=C/c1ccccc1
[9]
  EC50: > 50 µM (active)

## C1=C(CCNCc2ccccc2)CCCC1
[9]
  EC50: > 50 µM (active)

## CC(C)[N+](C)(C)CC(O)CN(c1ccccc1)c1ccccc1 (stereo not given)
[1]
  IC50: 2.65 µM (active)
[2]
  IC50: 3.2 µM (active)

## CC(C)(C)n1nc2c(c1NC(=O)Cc1cccs1)CSC2
[9]
  EC50: > 50 µM (active)

## CCOc1cc(S(=O)(=O)Nc2cccnc2)c(OCC)cc1C
[4]
  IC50: 2.61 µM (active)

## O=C(C[n+]1ccc(CCSc2ccc(F)cc2)cc1)c1ccccc1
Bcl-2-related protein A1
  IC50: 5.2 µM (active)
[10]
  IC50: 1.46 µM (active)
[11]
  IC50: 1.02 µM (active)

## CCCCSc1nnc(N)[nH]1
[3]
  IC50: > 100 µM (not active)
[4]
  IC50: > 100 µM (inactive)

## C=C(C)CN(CC)C(=O)CC1C(=O)NCCN1CC(C)(C)C (stereo not given)
Prothrombin
  IC50: > 50 µM (not active)

## O=C1CCC(C(=O)Nc2cccc3ccccc23)N1 (stereo not given)
Prothrombin
  IC50: > 50 µM (not active)

## COCCN(CCOC)S(=O)(=O)c1ccc(C(=O)Nc2nc3c(s2)CCc2ccccc2-3)cc1
[6]
  EC50: 8.49 µM (active)
[8]
  EC50: 13.1 µM (active)

## O=C(CC1(O)C(=O)Nc2ccc(Br)cc21)c1ccc2c(c1)OCO2 (stereo not given)
Prothrombin
  IC50: 2.3 µM (active)
[12]
  EC50: > 260 µM (inactive)
[9]
  EC50: > 50 µM (active)

## CC1=NN(C(=O)c2ccc(Cn3nc(C)c(Br)c3C)cc2)C(O)(C(F)(F)F)C1 (stereo not given)
[13]
  CC50: 34 µM (active)

## Nc1nc2c(s1)CCCCCCCCCC2
[1]
  IC50: 4.49 µM (active)
[2]
  IC50: 7.08 µM (active)

## CCN1CCN(Cc2ccc(NC(=O)c3cc(NC(=O)C(=O)c4c[nH]c5ccccc45)cc(OC)c3)cc2C(F)(F)F)CC1
[14]
  EC50: 6.9 µM (active)
[15]
  EC50: 8.53 µM (active)
Bcl-2-related protein A1
  IC50: > 20 µM (inactive)
INS1
  AC50: 7.13 µM (active)
[10]
  IC50: 16.8 µM (active)
[16]
  EC50: 9.06 µM (active)
[11]
  IC50: 11.9 µM (active)

## S=c1[nH]nc(CSCc2ccccc2Cl)n1C1CCCCC1
[17]
  IC50: 11.1 µM (not active)
[18]
  IC50: 3.7 µM (active)

## C=CCN1C(=O)C(C(C)CC)NC1=S (stereo not given)
Prothrombin
  IC50: > 50 µM (not active)

## C=C(c1ccc(O)cc1)c1ccc(O)cc1
[19]
  AC50: 0.205 µM (active)
[20]
  EC50: 3.76 µM (active)
[18]
  IC50: 1.75 µM (active)

## COc1ccc(-c2nnc(SCC(=O)Nc3sc4c(c3C#N)CCCC4)n2-c2ccccc2)cc1
[21]
  CC50: 9.89 µM (active)
[6]
  EC50: 5.14 µM (active)
[8]
  EC50: 5.75 µM (active)
